Among the data in PubChem BioAssay AID179 (DTP/NCI, 2004) are EC50, IC50 and outcome values, retold here.

Values joined by “and” are separate entries in the source; they are usually repeats but may differ in a detail not shown here. Equal values may be shown once. Active and inactive are the calls of the source.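 The calls were made as follows: active = compounds giving half or more protection of infected cells from virus-caused growth loss, again on retest; inactive = the rest.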

The test system of this experiment is CEM cells HIV-1 protection, formazan growth assay. Nature of the experiment: NCI AIDS Antiviral Assay. As to conditions: for IC50: measured here: growth of uninfected CEM cells. In outline:
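Human CEM cells, uninfected and HIV-1-infected, exposed to five drug concentrations; growth measured by soluble formazan assay and scored as percent protection from infection, with protecting compounds retested.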

What is called EC50 is the concentration needed to bring the measured effect to its halfway point. By IC50 is commonly meant the concentration that inhibits the measured activity by half. A low value points to greater potency. As for `O=P(O)(O)OC1C(OP(=O)(O)O)C(OP(=O)(O)O)C(OP(=O)(O)O)C(OP(=O)(O)O)C1OP(=O)(O)O.[Zn+2]` (stereo not given), the EC50 was more than 100 µM and the IC50 is more than 100 µM. On to `C=C1C(=O)OC2C=C(CCC(C)=O)C(C)C(OC(C)=O)CC12` (stereo not given), for which the result was inactive. As for `CCC/C(Cl)=N/OC(=O)Nc1ccccc1C(F)(F)F`, the EC50 is more than 20 µM and the concentration for half-maximal inhibition (IC50) was 3.39 µM.

Consider `CC(=O)O[C@H]1CC[C@]2(C)C3=CC[C@]4(C)[C@@H](C(C)=O)CC[C@H]4[C@@]34C=C[C@]2(C1)C1C(=O)OC(=O)C14` (stereo not given in full), for which the EC50 was more than 200 µM and the 50% inhibitory concentration (IC50) stood at 70.8 µM. In the same order, the values of `COC(=O)C1(CC(=O)OCc2ccccc2)NCCc2c1[nH]c1ccccc21` (stereo not given) are more than 3.31 µM and more than 3.31 µM.

In the case of `[O]=[Sb]([OH])([OH])[c]1ccccc1`, the EC50 was more than 200 µM; the IC50 is 77.6 µM and > 200 µM. In the case of `Cc1ccc(SSCCCCS(=O)O)cc1`, the result was inactive. On to `C/C=C/C=C\C(=O)C1c2cccc(O)c2C(=O)c2c(O)cc(C)cc21` (stereo not given), for which the EC50 is more than 21.4 µM and the half-maximal inhibitory concentration (IC50) turned out to be 3.89 µM. In the same order, the values of `O=S1(=O)CCN(c2ccccc2CC(c2c[nH]c3ccccc23)c2c[nH]c3ccccc23)CC1` are more than 5.75 µM and more than 5.75 µM. `O=[N+]([O-])c1cc(Cl)ccc1OCc1ccccc1`: the result was inactive.

For `O=C(CCn1ccnc1)N1CCN(c2ccccc2)CC1`, the EC50 was more than 871 µM and the IC50 is 646 µM. `COc1ccc(C2c3cc4c(cc3OC(N3CCOCC3)C2C)OCO4)cc1` (stereo not given): the EC50 was more than 200 µM and the IC50 stood at 53.7 µM.

Turning to `N.N.NC(CS)C(=O)[O-].NC(CS)C(=O)[O-].[Pt+4]` (stereo not given), the EC50 is more than 3310 µM and the IC50 was more than 3310 µM. As for `CC(=O)OC1CN2CCC1CC2` (stereo not given), the EC50 is more than 200 µM and the IC50 is more than 200 µM.

As to `CC(C)(O)C1CCC2(C)CC(=O)NCCN12` (stereo not given), the EC50 is more than 398 µM and the IC50 was more than 398 µM. For `CC(C)=CCC(O)[C@](C)(O)[C@H]1[C@H](O)C[C@@]2(C)[C@@H]3CCc4cc(O)c(OC5OC(CO)C(O)C(O)C5O)cc4C3(C)C(=O)C[C@]12C` (stereo not given in full), the EC50 was more than 200 µM and the IC50 was more than 200 µM. Turning to `O=C(CCc1nc(=S)[nH][nH]1)Nc1cc(Cl)ccc1Cl`, the EC50 is more than 407 µM and the IC50 was more than 407 µM. As to `CCOC(=O)c1cccnc1C(OC(C)=O)OC(C)=O`, the EC50 is more than 891 µM and the IC50 is 158 µM. As to `COc1cccc(/C=C2\N=C(Cl)OC2=O)c1O`, the EC50 was more than 20.4 µM and the concentration for half-maximal inhibition (IC50) is more than 20.4 µM.

As to `C/C(=C/CNc1ncnc2c1ncn2CCC(=O)O)CO`, the EC50 was more than 200 µM and the IC50 is more than 200 µM. With `COc1c2occc2c(N=Cc2ccc([N+](=O)[O-])cc2)c2ccc(=O)oc12`, the EC50 was more than 34.7 µM and the IC50 is more than 34.7 µM. `CCOC(=O)C1(Br)CCN(S(=O)(=O)c2ccc(C)cc2)c2ccccc2C1=O` (stereo not given): the EC50 is more than 200 µM and the half-inhibitory concentration (IC50) was determined as 1.51 µM. On to `NC1=NC(N)=N1`, for which the EC50 was more than 2950 µM and the IC50 is more than 2950 µM.

Regarding `N/C(=N\N=C\c1cccs1)NO`, the EC50 is more than 708 µM and the IC50 is more than 708 µM.

With `COC1/C=C/OC2(C)Oc3c(C)c(O)c4c(O)c(c(/C=N/N(c5ccccc5)c5ccccc5)c(O)c4c3C2=O)NC(=O)C(C)=C/C=C/C(C)C(O)C(C)C(O)C(C)C(OC(C)=O)C1C` (stereo not given), the EC50 was more than 200 µM and the IC50 is 7.41 µM. The corresponding values for `O=C(O)CSc1nnc(COc2ccc(Cl)cc2)n1-c1ccccc1` are more than 200 µM and 182 µM. For the molecule `CC1=NN2C(c3ccc(Cl)cc3)=CSC2=NC(C)(C)C1`, the EC50 was more than 162 µM and the IC50 was determined as 93.3 µM. With `Clc1ccc(Cl)c(-c2csc(-c3cccnc3)n2)c1`, the EC50 was more than 200 µM and the half-maximal inhibitory concentration (IC50) was 36.3 µM. Take `COCC(OC)C(CC=C(C#N)C#N)OC` (stereo not given): the EC50 was more than 44.7 µM and the IC50 is more than 44.7 µM.
